Results from US11180463B2, “Thiazole inner salt compounds, and preparation methods and uses thereof” (Institute of Pharmacology and Toxicology Academy of …, priority 2013, dated 2021).
“And” between values parts separate entries of the source, which are not always exact repeats. Identical values can stand only once. Counter-ions that a name gives are not always drawn. Like-named read-outs stand apart in the source and are kept apart here.

Columns and labels:
long-term diabetic rats = conditions: in vivo, cited from earlier work
[1] = Accelerated stability test (RT40° C., RH75%); assay type: physicochemical; conditions: for Weight gain (%) / Purity* (%) / Appearance and color: RT40° C., RH75%; for Accelerated test, 3 months: appearance after 3 months at 40° C., humidity 75%, three batches
Method: Three batches of sample (prepared according to Example 2) were taken according to the Chinese Pharmacopoeia, 2010 Edition, packaged like packaging for sale (high-density polyethylene bags were used for drug packaging), placed under conditions of RT40° C., RH75% (NaCl saturated solution) to carry out accelerated test, after 1, 2, 3, 6 months, sampled for observation of the compound of Formula I and the compound of Formula A, compared to the data of the 0th day, and the results were shown in Table 1 and Table 2.
One batches of sample as prepared according to Example 3 were taken, packaged like packaging for sale (high-density polyethylene bags were used for drug packaging), placed under conditions of RT40° C., RH75% (NaCl saturated solution), after 1, 2, 3 months, sampled and compared to the data of the 0th day, and the results were shown in Table 3.
Three batches of sample of the compound of Formula A were taken according to the Chinese Pharmacopoeia, 2010 Edition, packaged like packaging for sale (high-density polyethylene bags were used for drug packaging), placed under conditions of RT40° C., RH75% (NaCl saturated solution), after 1, 2, 3 months, sampled and compared to the data of the 0th day, and the results were shown in Table 1 and Table 4.

[2] = system: rats with diabetes accompanied by hypertension
Method: In the meantime, pure diabetes group and normal control group of the same week-age were also set. The compound of Example 2 (36 mg/kg) was dissolved in distilled water just before use, administered intragastrically, once per day, for 5 weeks.

[3] = system: rats with diabetes accompanied by hypertension; assay: Blood pressure monitoring, compound of Example 2 alone (Example 7); assay type: in vivo; conditions: after 4 weeks
[4] = system: rats with diabetes accompanied by hypertension; assay: 24 h urine volume/water intake in rats with diabetes accompanied by hypertension; assay type: in vivo; conditions: 3rd week
Method: In the third week of administration, the rats of each group were solely placed and fed in metabolism cage, and the water intake and urine volume within 24 hours on the 19th, 20th and 21st day were recorded.
In the 3rd week of administering the compound of Example 2, Vurine/Vwater-intake values of rats in 24 hours were calculated.

[5] = system: RBC surface cross-linked IgG; assay: In vitro breaking erythrocytic surface cross-linked IgG (ELISA, lytic rate); assay type: cell-based; conditions: RBC of 16 weeks diabetic rats, 37° C., 16-18 h
Text: Because erythrocytic surface cross-linked IgG is a typical AGEs cross-linked structure, the determination of degree that a compound breaks erythrocytic surface cross-linked IgG is well known as a better method for evaluating the ability of the compound in breaking AGEs cross-linked structure (Bruceh. R. Wolffenbuttel, Breakers of advanced glycation end products restore large artery properties in experimental diabetes, Natl. Acad. Sci. U.S.A 1998, 95, 4630).
Method for treating blood cells: 16 weeks diabetic rats were narcotized, blood samples were got from their carotid arteries, added with heparin for anticoagulation, centrifuged at 4° C. and 1000 g for 3 min, the lower layer RBC (red blood cells) was taken; washed with 0.1 mol/L PBS (pH7.4) for 3 times, centrifuged each time at 4° C. and 1000 g for 3 min; and the lower layer RBC was used for test.
In vitro administration method: 0.1 mol/L isotonic PBS (phosphate buffer) (pH7.4) was used as negative control, each of the compounds to be tested formed solutions with different concentrations using the buffer. Into per 900 μL of solution or solvent, 100 μL RBC was added, slightly shook at 37° C. for 16-18 h; centrifuged at 1000 g, 4° C. for 3 min, the supernatant was discarded, the plate was washed with 0.1 mol/L PBS (pH7.4) for 4 times to remove residual compound; centrifuged at 1000 g, 4° C. for 3 min, the lower layer RBC was diluted in ratio of 1:100 for ELISA determination.
Procedure for determination of RBC surface cross-linked IgG content via immunoadsorption method: Multiscreen-HA 0.45 μm 96-well plate (Millipore), sealed with Superblock (300 μL/well), 37° C., 1 h; then drained under 5 mmHg of negative pressure, the whole plate was washed with PBST for 3 times, washed with 0.1M PBS (pH7.4) for twice, shaking plate each time for 1 min; added with RBC (50 μL/well) to be tested, another PBS background control well (OD0) was set; drained under negative pressure; washed with 150 μL of 0.1 mol/L PBS (pH7.4) for 4 times, shaking plate each time for 1 min. After being drained under negative pressure, the 1:500 diluted goat-anti-mouse IgG-HRP (50 μL/well) was added, stood at room temperature for 2 h, drained; washed with 0.1 mol/L PBS (pH7.4), 150 μL/well, for 3 times, shaking plate each time for 1 min; drained; added with o-phenylenediamine (OPD) substrate developing solution (100 μL/well), stood at room temperature in dark for 30 min, the reaction was terminated with 2 mol/L H2SO4 (100 μL/well); the reaction solution (150 μL/well) was sucked out quickly and transferred to a normal 96-well ELISA plate, and OD values were determined under 490 nm.
Calculation of Lytic Rates of the Compounds to be Tested: […]

[6] = no significant change vs. model
[7] = 36 mg/kg intragastrically once per day, Mean ± SD, n = 12

For `Cc1csc[n+]1CC(=O)O.[Na+]` [Formula A, 3-carboxymethyl-4metyl-bromothiazolium sodium salt, reference compound], the “AGEs fluorescence contents of aorta, myocardium of left ventricle and kidney” value (long-term diabetic rats; long-term diabetic rats) is listed as “significantly reduce”, the “aorta compliance of diabetic rats” value (long-term diabetic rats; rat) is listed as “improved” and the cardiac output (long-term diabetic rats; rat) is listed as “increased”. For the same compound, the left ventricular function (long-term diabetic rats; rat) was “significantly improved”, the “Weight gain (%)” value ([1]; 0th month) was 0% and the “Purity* (%)” value ([1]; 0th month, sodium salt) was 98.8% and 99.1% and 98.7%. For the same compound, the Appearance and color ([1]; 1st month) was “brown, tacky”, the “Purity* (%)” value ([1]; 1st month, sodium salt) was 85.1% and 82.7% and 81.6% and the “Weight gain (%)” value ([1]; 1st month, sodium salt) was 18.0% and 18.5% and 19.0%. For the same compound, the Appearance and color ([1]; 2nd month) was “dark brown,”, the “Purity* (%)” value ([1]; 2nd month, sodium salt) was 60.6% and 59.8% and 60.3% and the “Weight gain (%)” value ([1]; 2nd month, sodium salt) was 32.6% and 33.6% and 33.8%. The Appearance and color ([1]; 3rd month) was “dark brown,”, the “Purity* (%)” value ([1]; 3rd month, sodium salt) was 51.2% and 48.5% and 54.6% and the “Weight gain (%)” value ([1]; 3rd month, sodium salt) was 41.5% and 42.1% and 44.0%. For the same compound, the “Accelerated test, 3 months” value ([1]; listed as drawing 8, sodium salt) was “caking, appearance changing into dark brown caking, appearance changing into dark brown caking, appearance changing into dark brown” and the “Accelerated test, 3 months” value ([1]; sodium salt) was “easy to absorb moisture, agglomerate and change color”.

With `COC(=O)C1=C(C)NC(C)=C(C(=O)OC)C1c1ccccc1[N+](=O)[O-]` [Nifedipine] the “systolic pressure variable coefficient (CV)” value ([2]; after administration for 1-5 h) was 0.047±0.017, the “ejection time (ET)” value ([2]; after administration for 20 min) was 71.8 ± 4.2 ms and the average systolic pressure ([2]; after administration for 1 h) was 155.2±14.9 mmHg. The “pressure drop ΔSBP” value ([2]; after administration for 1.5 h) was 25.3±9.3 mmHg, the “average pulse-pressure difference (PH)” value ([2]; after administration for 5 h) was 48.1±5.1 mmHg and the average systolic pressure ([2]; after administration for 5 h) was 166.0±15.0 mmHg. The “ejection time (ET)” value ([2]; after administration for 5 h) was 81.1 ± 5.0 ms, the “pressure drop ΔSBP” value ([2]; after administration for 5 h) was 15.9±9.3 mmHg and the “average pulse-pressure difference (PH)” value ([2]; after administration for 10 h) was 48.7±5.2 mmHg. For the same compound, the average systolic pressure ([2]; after administration for 10 h) was 179.0±14.1 mmHg, the “pressure drop ΔSBP” value ([2]; after administration for 10 h) was 1.19±3.5 mmHg and the “time after administration at which the systolic pressure started to rise” value ([2]; rat, in vivo) was 2 h. For the same compound, the “time after which pulse-pressure difference (PH) started to rise” value ([2]; rat, in vivo) was 1 h and the “time at which ET recovered the level before administration” value ([2]; rat, in vivo) was 5 h.

For “3-methylcarbonyloxy-4-methyl-thiazole inner salt monohydrate [Example 3]”, the “Purity* (%)” value ([1]; 0th month) was 99.9%, the “Weight gain (%)” value ([1]; 0th month) was 0% and the “Purity* (%)” value ([1]; 1st month) was 99.8%. The “Weight gain (%)” value ([1]; 1st month) was 0.04%, the “Purity* (%)” value ([1]; 2nd month) was 99.7% and the “Weight gain (%)” value ([1]; 2nd month) was 0.06%. For the same compound, the “Purity* (%)” value ([1]; 3rd month) was 99.7% and the “Weight gain (%)” value ([1]; 3rd month) was 0.07%.

In the case of `Cc1csc[n+]1CC(=O)[O-]` [Example 2], the “Purity* (%)” value ([1]; 0th month) is reported as 100.0% and 99.6% and 99.8%, the “Weight gain (%)” value ([1]; 0th month) is reported as 0% and the “Purity* (%)” value ([1]; 1st month) is reported as 99.7% and 99.8%. The “Weight gain (%)” value ([1]; 1st month) was 0.11% and 0.12%, the “Purity* (%)” value ([1]; 2nd month) was 99.6% and 99.2% and the “Weight gain (%)” value ([1]; 2nd month) was 0.12% and 0.13%. The “Purity* (%)” value ([1]; 3rd month) was 99.8% and 99.3%, the “Weight gain (%)” value ([1]; 3rd month) was 0.15% and 0.14% and 0.13% and the “Purity* (%)” value ([1]; 6th month) was 99.9% and 99.6% and 99.8%. For the same compound, the “Weight gain (%)” value ([1]; 6th month) was 0.18% and 0.15%, the “Accelerated test, 3 months” value [1] was “no obvious appearance change no obvious appearance change no obvious appearance change” and the “systolic pressure variable coefficient (CV) during time period 10:00-20:00” value ([3]; in comparison with the model group, P<0.01) was “significantly decrease”. The “average heart rate during time period 10:00-20:00” value [3, 6] was 255±17 beats/min, the “average pulse-pressure difference during time period 10:00-20:00” value [3, 6] was 46.5±5.7 mmHg and the “Vurine” value [4, 7] was 318.3 ± 106.0 mL. The “Vwater-intake” value [4, 7] was 375.0 ± 123.6 mL, the Vurine/Vwater-intake ([4]; 36 mg/kg, P < 0.01 vs. model) was 0.86 ± 0.05 and the “Vurine/bodyweight” value ([4]; first line so headed (r8), 36 mg/kg) was 0.88 ± 0.31 mL/g. For the same compound, the “Vurine/bodyweight” value ([4]; second line so headed (r9), 36 mg/kg) was 1.03 ± 0.34 mL/g, the “Lytic rate (decrease of OD value, %)” value ([5]; 1 μM) was 27.1 ± 2.2% and the “Lytic rate (decrease of OD value, %)” value ([5]; 10 μM) was 27.5 ± 2.9%. The “Lytic rate (decrease of OD value, %)” value ([5]; 30 μM) was 23.2 ± 5.1% and the “Lytic rate (decrease of OD value, %)” value ([5]; 100 μM) was 27.9 ± 3.0%.

`Cc1csc[n+]1CC(=O)[O-]` (as salt: salt) [Example 2] showed a melting point of 169 °C.
